Measured values as given in paper PMC6719172, “Inhibition of CpLIP2 Lipase Hydrolytic Activity by Four Flavonols (Galangin, Kaempferol, Quercetin, Myricetin) Compared to Orlistat and Their Binding Mechanisms Studied by Quenching of Fluorescence” (Molecules, 2019).
Converted amounts (≈) assume the structure as drawn. Like-named read-outs stand apart in the source and are kept apart here.

Tests used:
pancreatic lipase (PL) = target: pancreatic lipase (PL); set-up: method as in PMID 23363068; conditions: in vitro assay; cited from earlier work
[1] = cited from earlier work
CpLIP2 lipase = CpLIP2 lipase (Candida parapsilosis, UniProt Q8NIN8); assay: Inhibition of CpLIP2 hydrolytic activity (ethyl oleate hydrolysis, GC); type: biochemical; conditions: for Ki: non-competitive or uncompetitive model
Sequence of CpLIP2 lipase (Q8NIN8 entry or part of it): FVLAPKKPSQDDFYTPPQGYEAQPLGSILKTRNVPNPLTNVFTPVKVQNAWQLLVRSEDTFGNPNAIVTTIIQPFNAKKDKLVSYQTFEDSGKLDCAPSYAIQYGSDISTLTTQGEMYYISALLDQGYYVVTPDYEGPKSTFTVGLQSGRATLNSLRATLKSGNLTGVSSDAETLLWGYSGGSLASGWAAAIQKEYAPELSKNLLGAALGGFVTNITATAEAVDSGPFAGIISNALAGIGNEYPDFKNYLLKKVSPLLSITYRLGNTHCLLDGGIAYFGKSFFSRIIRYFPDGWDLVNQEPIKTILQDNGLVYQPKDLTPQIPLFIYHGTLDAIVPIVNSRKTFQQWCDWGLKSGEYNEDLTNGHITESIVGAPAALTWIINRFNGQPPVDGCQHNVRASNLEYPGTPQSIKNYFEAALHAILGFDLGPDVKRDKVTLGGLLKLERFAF
Method: The effect of inhibitor concentrations on the hydrolysis reaction rate in standard conditions was assumed to follow either a non-competitive or an uncompetitive model, corresponding to Equation (1):(1) Ki=I/ V0/Vi−1 where V0 and Vi are the initial rates of the reaction without or with inhibitor at concentration I.
Standard CpLIP2 hydrolytic activity measurement. Hydrolysis activities were determined by measuring the initial rates of fatty acid and esters production (µmol·min^−1·mL^−1), using ethyl oleate (C18:1, EE) as substrates. Specific activity is the total activity expressed in µmol·min^−1·mL^−1 in relation to protein concentration (mg·mL^−1). Experiments were conducted as described by. Hydrolysis of ethyl oleate (EO) was performed in aqueous emulsions at 30 °C. This emulsion consisted of 100 µmol·mL^−1 EO emulsified by sonication (Branson Sonifier 250, 20 s, 200 watts, 145 µm amplitude) in an aqueous solution of 20 g·L^−1 poly vinyl alcohol. The reactions of hydrolysis were prepared in glass test tube by adding 100 μL of ethyl oleate emulsion to 800 µL of sodium phosphate buffer 50 mM, pH 6.5; then the solutions were incubated in water bath at 30 °C for 5 min. The reaction was started by the addition of 100 µL of enzyme solution of CpLIP2 with final concentration 3 µg·mL^−1 with activity 2000 U/mL.
The enzyme solution was pre-incubated at 25 °C, with continuous stirring at 350 rpm. Pre-incubation was conducted with 1980 µL CpLIP2 lipase diluted in sodium NaH2PO4/Na2HPO4 phosphate buffer (50 mM, pH 6.5) containing 20 µL absolute EtOH at 2 different times (1 and 30 min). This pre-incubation phase was conducted in closed vials placed during 2 h on a Radleys StarFish Multi-Experiment Workstation. The reaction was conducted for 15 min at 30 °C, and then stopped by adding 950 µL of a mixture of ethanol/sulphuric acid (100:0.8, v/v). After the addition of 50 µL of internal standards (ethanolic solution of pentadecanoic acid and its ethyl and methyl esters, 1 µmol each), lipids were extracted from the mixture with 1 mL of hexane. Samples were then prepared for analyzing esters and free fatty acids by gas chromatography (GC) as follows. Hexane extract (200 µL) was reacted with 25 µL pyridine and 25 µL N-methyl-tri (methylsilyl)-trifluoroacetamide (MSTFA) as silylating agent. Mixtures were incubated in water bath at 50 °C for 20 min, and then samples were ready for analysis. Reaction rates were determined by the analysis of fat composition by capillary gas chromatography after 15 min reaction. It was checked that less than 30% of the total substrate was converted at the end of the 15 min reaction.
A Shimadzu GC 2010 plus gas chromatograph equipped with a flame ionization detector, an automatic sampler (injected volume 0.1 μL) and a split/splitless injector was used for analysis. The capillary column was a DB-5ht (15 m × 0.25 mm, Phenomenex, Le Pecq, France). The helium carrier flow was 1 mL min^−1and the split ratio was 1:50. Temperature conditions were, for reactions with individual substrates: injector 280 °C, detector 290 °C, oven 200–225 °C at 10 °C min^−1 then to 260 °C at 35 °C·min^−1 for ethyl ester (EE) and fatty acid (FA) of C18:1. Calibration curves were realized using emulsions of mixtures of FA and monoesters prepared according to the same protocol, without enzyme and alcohol.
In order to measure the residual lipase activity in the presence of potential inhibitors, the previous method was conducted in the presence and absence of the inhibitors. For each potential inhibitor, the lipase-catalyzed rate of hydrolysis was evaluated after a pre-incubation period between the lipase and the potential inhibitors, which were solubilized in absolute ethanol at 1% of final concentration. The preincubation was performed at 25 °C with continuous stirring at 350 rpm with different concentration of inhibitors (14, 27.5, 55 µM) which represented, respectively 25, 50, 100-fold the final lipase concentration (0.55 µM). […]

[2] = target: C. rugosa commercial lipase; set-up: method as in doi:10.1016/j.molcatb.2006.02.012; conditions: cited from earlier work
[3] = set-up: method as in PMID 24601218, doi:10.1021/ja00090a032; conditions: cited from earlier work
[4] = estimated after 30 min of pre-incubation
[5] = concentration not stated (14–55 µM tested), up to 30 min pre-incubation
[6] = read-out: inhibition of CpLIP2 activity

| SMILES | IC50 (pancreatic lipase (PL)) [mg/mL] | log10 P of partition between octanol and water phases [1] | log10D (octanol/water at pH 7.4) ([1]; pH 7.4) | Ki (CpLIP2 lipase; [4]) [µM] | inhibition of CpLIP2 activity (CpLIP2 lipase; after 1 min pre-incubation, concentration not given) | inhibition of CpLIP2 activity (CpLIP2 lipase; [5]) | IC50 [2] [µM] | inhibition of CpLIP2 activity (CpLIP2 lipase; 55 µM (100-fold molar excess, highest concentration), pre-incubation time not stated, 55 µM) [%] | Ki (CpLIP2 lipase; estimated after 1 min of pre-incubation) [µM] | inhibition at 27.5 µM (CpLIP2 lipase; read-out: inhibition of CpLIP2 activity, 27.5 µM (50-fold lipase concentration), pre-incubation time not stated) [%] | inhibition at 55 µM (CpLIP2 lipase; read-out: inhibition of CpLIP2 activity, 55 µM (100-fold molar excess, highest concentration), pre-incubation time not stated) [%] | inhibition at 14 µM (CpLIP2 lipase; read-out: inhibition of CpLIP2 catalytic activity, 14 µM, within 1 min of pre-incubation) [%] | pKa1 [3] | inhibitory effect relative to THL (times lower) (CpLIP2 lipase) | inhibition at 14 µM (CpLIP2 lipase; [6]) [%] | inhibition at 27.5 µM (CpLIP2 lipase; [6]) [%] | inhibition at 55 µM (CpLIP2 lipase; [6]) [%] |
| --- | --- | --- | --- | --- | --- | --- | --- | --- | --- | --- | --- | --- | --- | --- | --- | --- | --- |
| O=c1c(O)c(-c2ccccc2)oc2cc(O)cc(O)c12 [GAL, galangin] | 48.2 (≈ 178 mM) | 3.9 | 0.7 | > 150 | no inhibition | ≤ 20% | – | – | – | – | – | – | – | – | – | – | – |
| O=c1c(O)c(-c2ccc(O)cc2)oc2cc(O)cc(O)c12 [KAE, kaempferol] | – | 3.5 | – | 6 | – | – | 6300 | 90 | 4 | > 80 | 92 | 80 | 8.2 | – | – | – | – |
| O=c1c(O)c(-c2cc(O)c(O)c(O)c2)oc2cc(O)cc(O)c12 [MYR, myricetin] | – | 2.1 | – | 60 | – | about 20% | – | – | – | – | – | – | 6.6 | about 100 times | – | – | – |
| O=c1c(O)c(-c2ccc(O)c(O)c2)oc2cc(O)cc(O)c12 [QUE, quercetin] | – | 2.9 | – | 80 | – | – | – | – | – | – | – | – | – | about 100 times | 37 | 39 | 35 |
